{
  "source": "patent US20210220430A1",
  "about": "“USE OF NOD2 AGONIST FOR THE TREATMENT, PROPHYLAXIS AND/OR DELAY OF THE ONSET OF MULTIPLE SCLEROSIS AND ALZHEIMER?S DISEASE” (UNIVERSITE LAVAL, priority 2018, published 2021)",
  "origin": "cited, not measured here",
  "molecular_target": "NOD2 (Homo sapiens, UniProt Q9HC29)",
  "sequence (Q9HC29 whole entry, species assumed)": "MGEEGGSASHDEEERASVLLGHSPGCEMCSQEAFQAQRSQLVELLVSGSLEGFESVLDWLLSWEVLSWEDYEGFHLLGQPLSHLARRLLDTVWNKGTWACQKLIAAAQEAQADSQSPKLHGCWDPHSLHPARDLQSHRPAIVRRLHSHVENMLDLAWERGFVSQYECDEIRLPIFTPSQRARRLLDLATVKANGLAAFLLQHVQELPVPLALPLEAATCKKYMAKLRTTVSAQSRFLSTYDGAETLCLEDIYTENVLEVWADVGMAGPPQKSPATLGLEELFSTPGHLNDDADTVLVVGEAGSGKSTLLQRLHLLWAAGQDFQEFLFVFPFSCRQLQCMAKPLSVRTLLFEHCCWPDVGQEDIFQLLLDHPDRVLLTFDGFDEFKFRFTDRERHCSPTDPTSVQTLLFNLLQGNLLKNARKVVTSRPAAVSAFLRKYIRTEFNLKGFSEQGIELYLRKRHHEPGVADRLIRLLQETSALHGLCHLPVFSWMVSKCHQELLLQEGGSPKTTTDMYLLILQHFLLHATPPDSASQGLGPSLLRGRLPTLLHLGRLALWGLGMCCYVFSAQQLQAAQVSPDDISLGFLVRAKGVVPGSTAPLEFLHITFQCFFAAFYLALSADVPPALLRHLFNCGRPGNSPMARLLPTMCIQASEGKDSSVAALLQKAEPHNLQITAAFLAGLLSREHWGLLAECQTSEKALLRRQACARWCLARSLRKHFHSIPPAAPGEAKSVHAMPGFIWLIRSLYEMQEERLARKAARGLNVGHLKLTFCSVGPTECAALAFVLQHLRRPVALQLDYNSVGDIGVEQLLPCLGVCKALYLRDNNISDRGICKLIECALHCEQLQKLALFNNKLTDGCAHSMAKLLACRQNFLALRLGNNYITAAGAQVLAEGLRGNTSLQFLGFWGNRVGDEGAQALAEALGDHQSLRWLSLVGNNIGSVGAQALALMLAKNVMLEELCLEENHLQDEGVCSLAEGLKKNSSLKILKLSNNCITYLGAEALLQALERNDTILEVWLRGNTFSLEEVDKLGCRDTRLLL",
  "settings": "compared with classical N-acetyl MDP",
  "data": [
    {"smiles": "C[C@@H](NC(=O)[C@@H](C)OC1C(NC(=O)CO)[C@@H](O)OC(CO)[C@H]1O)C(=O)NC(CCC(=O)O)C(N)=O", "note": "(stereo partly shown) [N-glycolyl MDP]", "values": [
      {"measurement": "NOD2 agonist potency at stimulating inflammatory genes", "value": "more potent"}
    ]}
  ]
}
